According to ChEMBL document CHEMBL3734705, “Synthesis and in vitro cytotoxicity of novel C-12 substituted-14-deoxy-andrographolide derivatives as potent anti-cancer agents” (2015):

Assays:
[1] = Cytotoxicity against human Caki1 cells assessed as growth level at 10 uM after 48 hrs by SRB assay; assay type: functional, CAKI-1
SN12C [2] = experiment: Cytotoxicity against human SN12C cells assessed as growth inhibition at 10 uM after 48 hrs by SRB assay; assay type: functional; settings: read-out: GI
[3] = Cytotoxicity against human HCC2998 cells assessed as growth inhibition at 10 uM after 48 hrs by SRB assay; assay type: functional; settings: HCC 2998, 48 h, read-out: GI
NCI-H460 [4] = experiment: Cytotoxicity against human NCI-H460 cells assessed as growth level at 10 uM after 48 hrs by SRB assay; assay type: functional
MDA-MB-231 [5] = experiment: Cytotoxicity against human MDA-MB-231 cells assessed as growth inhibition at 10 uM after 48 hrs by SRB assay; assay type: functional; settings: MDA-MB-231, 48 h, read-out: GI
A498 [6] = experiment: Cytotoxicity against human A498 cells assessed as growth level at 10 uM after 48 hrs by SRB assay; assay type: functional
SK-MEL-5 = experiment: Cytotoxicity against human SK-MEL-5 cells assessed as growth level at 10 uM after 48 hrs by SRB assay; assay type: functional
[7] = Cytotoxicity against human COLO205 cells assessed as growth inhibition at 10 uM after 48 hrs by SRB assay; assay type: functional; settings: COLO 205, 48 h, read-out: GI
[8] = Cytotoxicity against human HCT116 cells assessed as growth level at 10 uM after 48 hrs by SRB assay; assay type: functional, HCT-116
[9] = Cytotoxicity against human RXF393 cells assessed as growth inhibition at 10 uM after 48 hrs by SRB assay; assay type: functional; settings: RXF 393, 48 h, read-out: GI
ACHN [10] = experiment: Cytotoxicity against human ACHN cells assessed as growth level at 10 uM after 48 hrs by SRB assay; assay type: functional
ACHN [11] = experiment: Cytotoxicity against human ACHN cells assessed as growth inhibition at 10 uM after 48 hrs by SRB assay; assay type: functional; settings: read-out: GI
[12] = Cytotoxicity against human UACC62 cells assessed as growth level at 10 uM after 48 hrs by SRB assay; assay type: functional, UACC-62
[13] = Cytotoxicity against human HCC2998 cells assessed as growth level at 10 uM after 48 hrs by SRB assay; assay type: functional, HCC 2998
[14] = Cytotoxicity against human HL-60(TB) cells assessed as growth level at 10 uM after 48 hrs by SRB assay; assay type: functional
[15] = Cytotoxicity against human SNB75 cells assessed as growth inhibition at 10 uM after 48 hrs by SRB assay; assay type: functional; settings: SNB-75, 48 h, read-out: GI
NCI-H460 [16] = experiment: Cytotoxicity against human NCI-H460 cells assessed as growth inhibition at 10 uM after 48 hrs by SRB assay; assay type: functional; settings: NCI-H460, 48 h, read-out: GI
[17] = Cytotoxicity against human SF539 cells assessed as growth inhibition at 10 uM after 48 hrs by SRB assay; assay type: functional; settings: SF-539, 48 h, read-out: GI
[18] = Cytotoxicity against human HCT15 cells assessed as growth level at 10 uM after 48 hrs by SRB assay; assay type: functional, HCT-15
[19] = Cytotoxicity against human PC3 cells assessed as growth level at 10 uM after 48 hrs by SRB assay; assay type: functional, PC-3
[20] = Cytotoxicity against human IGROV1 cells assessed as growth level at 10 uM after 48 hrs by SRB assay; assay type: functional, IGROV-1
CCRF-CEM = experiment: Cytotoxicity against human CCRF-CEM cells assessed as growth level at 10 uM after 48 hrs by SRB assay; assay type: functional
[21] = Cytotoxicity against human SKOV3 cells assessed as growth level at 10 uM after 48 hrs by SRB assay; assay type: functional, SK-OV-3
T47D = experiment: Cytotoxicity against human T47D cells assessed as growth level at 10 uM after 48 hrs by SRB assay; assay type: functional
NCI-H226 = experiment: Cytotoxicity against human NCI-H226 cells assessed as growth inhibition at 10 uM after 48 hrs by SRB assay; assay type: functional; settings: NCI-H226, 48 h, read-out: GI
SN12C [22] = experiment: Cytotoxicity against human SN12C cells assessed as growth level at 10 uM after 48 hrs by SRB assay; assay type: functional
[23] = Cytotoxicity against human NCI-ADR-RES cells assessed as growth inhibition at 10 uM after 48 hrs by SRB assay; assay type: functional; settings: read-out: GI
U-251 = experiment: Cytotoxicity against human U251 cells assessed as growth inhibition at 10 uM after 48 hrs by SRB assay; assay type: functional; settings: U-251, 48 h, read-out: GI
M14 [24] = experiment: Cytotoxicity against human M14 cells assessed as growth inhibition at 10 uM after 48 hrs by SRB assay; assay type: functional; settings: M14, 48 h, read-out: GI
M14 [25] = experiment: Cytotoxicity against human M14 cells assessed as growth level at 10 uM after 48 hrs by SRB assay; assay type: functional
SK-MEL-28 = experiment: Cytotoxicity against human SK-MEL-28 cells assessed as growth level at 10 uM after 48 hrs by SRB assay; assay type: functional
MCF7 [26] = experiment: Cytotoxicity against human MCF7 cells assessed as growth level at 10 uM after 48 hrs by SRB assay; assay type: functional
NCI-H23 = experiment: Cytotoxicity against human NCI-H23 cells assessed as growth level at 10 uM after 48 hrs by SRB assay; assay type: functional
A498 [27] = experiment: Cytotoxicity against human A498 cells assessed as growth inhibition at 10 uM after 48 hrs by SRB assay; assay type: functional; settings: A498, 48 h, read-out: GI
[28] = Cytotoxicity against human UACC62 cells assessed as growth inhibition at 10 uM after 48 hrs by SRB assay; assay type: functional; settings: UACC-62, 48 h, read-out: GI
[29] = Cytotoxicity against human UACC257 cells assessed as growth inhibition at 10 uM after 48 hrs by SRB assay; assay type: functional; settings: UACC-257, 48 h, read-out: GI
MCF7 [30] = experiment: Cytotoxicity against human MCF7 cells assessed as growth inhibition at 10 uM after 48 hrs by SRB assay; assay type: functional; settings: MCF7, 48 h, read-out: GI
[31] = Cytotoxicity against human OVCAR4 cells assessed as growth inhibition at 10 uM after 48 hrs by SRB assay; assay type: functional; settings: OVCAR-4, 48 h, read-out: GI
Malme-3M = experiment: Cytotoxicity against human MALME-3M cells assessed as growth inhibition at 10 uM after 48 hrs by SRB assay; assay type: functional; settings: read-out: GI
[32] = Cytotoxicity against human OVCAR8 cells assessed as growth inhibition at 10 uM after 48 hrs by SRB assay; assay type: functional; settings: OVCAR-8, 48 h, read-out: GI
MDA-MB-231 [33] = experiment: Cytotoxicity against human MDA-MB-231 cells assessed as growth level at 10 uM after 48 hrs by SRB assay; assay type: functional
[34] = Cytotoxicity against human SKOV3 cells assessed as growth inhibition at 10 uM after 48 hrs by SRB assay; assay type: functional; settings: SK-OV-3, 48 h, read-out: GI
[35] = Cytotoxicity against human SF268 cells assessed as growth level at 10 uM after 48 hrs by SRB assay; assay type: functional, SF-268
[36] = Cytotoxicity against human DU145 cells assessed as growth inhibition at 10 uM after 48 hrs by SRB assay; assay type: functional; settings: DU-145, 48 h, read-out: GI
[37] = Cytotoxicity against human SF295 cells assessed as growth inhibition at 10 uM after 48 hrs by SRB assay; assay type: functional; settings: SF-295, 48 h, read-out: GI

SMILES: C=C1CC[C@@H]2[C@](C)(COC(C)=O)[C@H](OC(C)=O)CC[C@@]2(C)[C@@H]1CC(NC1CCCC1)C1=CCOC1=O (stereo not given in full)
- Activity [1]: 60.7%
- inhibition of growth at 10 µM (SN12C [2]): 21.5%
- inhibition of growth at 10 µM [3]: 9.65%
- Activity (NCI-H460 [4]): 74.77%
- inhibition of growth at 10 µM (MDA-MB-231 [5]): 19.6%
- Activity (A498 [6]): 68%
- Activity (SK-MEL-5): 34.29%
- inhibition of growth at 10 µM [7]: 24.8%
- Activity [8]: 44.68%
- inhibition of growth at 10 µM [9]: 22%
- Activity (ACHN [10]): 78.47%
- inhibition of growth at 10 µM (ACHN [11]): 21.5%
- Activity [12]: 65.59%
- Activity [13]: 90.35%
- Activity [14]: 42.67%
- inhibition of growth at 10 µM [15]: 32%
- inhibition of growth at 10 µM (NCI-H460 [16]): 25.2%
- inhibition of growth at 10 µM [17]: 10.6%
- Activity [18]: 67.03%
- Activity [19]: 44.7%
- Activity [20]: 88.25%
- Activity (CCRF-CEM): 63.47%
- Activity [21]: 87.88%
- Activity (T47D): 50.85%
- inhibition of growth at 10 µM (NCI-H226): 15.5%
- Activity (SN12C [22]): 78.46%
- inhibition of growth at 10 µM [23]: 31.5%
- inhibition of growth at 10 µM (U-251): 24.6%
- inhibition of growth at 10 µM (M14 [24]): 20.9%
- Activity (M14 [25]): 79.06%
- Activity (SK-MEL-28): 91.05%
- Activity (MCF7 [26]): 72.42%
- Activity (NCI-H23): 62.53%
- inhibition of growth at 10 µM (A498 [27]): 32%
- inhibition of growth at 10 µM [28]: 34.4%
- inhibition of growth at 10 µM [29]: 61.6%
- inhibition of growth at 10 µM (MCF7 [30]): 27.6%
- inhibition of growth at 10 µM [31]: 41.6%
- inhibition of growth at 10 µM (Malme-3M): 15.4%
- inhibition of growth at 10 µM [32]: 46.3%
- Activity (MDA-MB-231 [33]): 80.39%
- inhibition of growth at 10 µM [34]: 12.1%
- Activity [35]: 76.66%
- inhibition of growth at 10 µM [36]: 8.04%
- inhibition of growth at 10 µM [37]: 9.61%
